According to patent publication US9617216B2, “Antifungal oxodihydropyridinecarbohydrazide derivative” (Daewoong Pharmaceutical Co., Ltd., priority 2013, dated 2017):
Converted amounts (≈) assume the structure as drawn.

Test system: Candida albicans
Assay: In vitro antifungal activity test (MIC), Candida albicans
Format: cell-based
Details: Candida albicans; concentration at which growth is inhibited by 80% vs negative control; 35° C., 24 hours, RPMI 1640, alama blue
Method: The antifungal activities of the compounds of the present invention were evaluated using Candida albicans as yeast fungus, and Aspergillus fumigatus as a filamentous fungus. The above fungi used were all purchased from American Type Culture Collection (ATCC). The strains used in the experiment were inoculated into a Sabouraud dextrose agar medium, and then cultured at 35° C. for a sufficient period of time, e.g., 24 hours for Candida albicans, and about 7 days for Aspergillus fumigatus. As for Candida albicans, about 5 to 7 single colonies were taken from the cultured medium, sufficiently suspended in 1 ml of 0.85% sterile saline solution, and adjusted to have an optical density of 0.095 to 0.107 at 530 nm. A preparation of a strain diluent was diluted in Roswell park memorial institute (RPMI) 1640 medium at a 1:10 ratio, and the resultant was diluted again at a 1:100 ratio to obtain an inoculation preparation for Candida albicans with a concentration of 1.0×10^3 to 5.0×10^3 CFU/mL. As for Aspergillus fumigatus, the cultured Sabouraud dextrose agar was added with 1 mL of 0.2% Tween 20 diluted with 0.85% sterile saline solution, and then the plate was shaken to detach conidium from the plate. The solution collected from the plate surface was transferred into a sterile tube, and placed at room temperature for 5 minutes to deposit heavy substances. The resulting supernatant was transferred into the sterile tube, sufficiently suspended for about 15 seconds, and prepared a strain diluent with a concentration of 0.4×10^6 to 5.0×10^6 CFU/mL using a hemocytometer. The thus prepared strain diluent was diluted in RPMI 1640 medium at a 1:100 ratio to obtain an inoculation preparation for Aspergillus fumigatus. Candida albicans was cultured at 35° C. for 24 hours and Aspergillus fumigatus was cultured at 35° C. for 48 hours, and the concentrations, at which growth is inhibited by 80% or 50% compared to a negative control group, were determined using alama blue color developing reagent. All experiments were repeated twice for each concentration, and the results of antifungal activities (MIC80 MIC50 μg/mL) are shown in Tables 1 to 2.

Work on Cn1cc(C(=O)NNc2ccc(F)cc2)ccc1=O [Example 3, N′-(4-fluorophenyl)-1-methyl-6-oxo-1,6-dihydropyridine-3-carbohydrazide] yielded an MIC80 of 0.1 µg/mL (≈ 0.383 µM).

Cn1cc(C(=O)NNc2cccc(Cl)c2)ccc1=O [Example 4, N′-(3-chlorophenyl)-1-methyl-6-oxo-1,6-dihydropyridine-3-carbohydrazide] showed an MIC80 of 0.11 µg/mL (≈ 0.396 µM).

Work on Cn1cc(C(=O)NNc2ccc(Cl)cc2)ccc1=O [Example 5, N′-(4-chlorophenyl)-1-methyl-6-oxo-1,6-dihydropyridine-3-carbohydrazide] yielded an MIC80 of 0.05 µg/mL (≈ 0.18 µM).

Cn1cc(C(=O)NNc2cccc(C#N)c2)ccc1=O [Example 6, N′-(3-cyanophenyl)-1-methyl-6-oxo-1,6-dihydropyridine-3-carbohydrazide] gave an MIC80 of 0.1 µg/mL (≈ 0.373 µM).

Cn1cc(C(=O)NNc2ccc(C#N)cc2)ccc1=O [Example 7, N′-(4-cyanophenyl)-1-methyl-6-oxo-1,6-dihydropyridine-3-carbohydrazide] showed an MIC80 of 0.84 µg/mL (≈ 3.13 µM).

Compound Cn1cc(C(=O)NNc2cccc(C(F)(F)F)c2)ccc1=O [Example 8, 1-methyl-6-oxo-N′-(3-(trifluoromethyl)phenyl)-1,6-dihydropyridine-3-carbohydrazide] has an MIC80 of 0.24 µg/mL (≈ 0.771 µM).

Cn1cc(C(=O)NNc2ccc(C(F)(F)F)cc2)ccc1=O [Example 9, 1-methyl-6-oxo-N′-(4-(trifluoromethyl)phenyl)-1,6-dihydropyridine-3-carbohydrazide] gave an MIC80 of 1.95 µg/mL (≈ 6.26 µM).

Cn1cc(C(=O)NNc2ccc(F)c(F)c2)ccc1=O [Example 12, N′-(3,4-difluorophenyl)-1-methyl-6-oxo-1,6-dihydropyridine-3-carbohydrazide] showed an MIC80 of 0.22 µg/mL (≈ 0.788 µM).

For Cn1cc(C(=O)NNc2ccc(Cl)c(Cl)c2)ccc1=O [Example 14, N′-(3,4-dichlorophenyl)-1-methyl-6-oxo-1,6-dihydropyridine-3-carbohydrazide], the MIC80 was 0.06 µg/mL (≈ 0.192 µM).

Compound Cn1cc(C(=O)NNc2ccc(F)c(Cl)c2)ccc1=O [Example 17, N′-(3-chloro-4-fluorophenyl)-1-methyl-6-oxo-1,6-dihydropyridine-3-carbohydrazide] has an MIC80 of 0.12 µg/mL (≈ 0.406 µM).

Cn1cc(C(=O)NNc2ccc(F)nc2F)ccc1=O [Example 19, N′-(2,6-difluoropyridine-3-yl)-1-methyl-6-oxo-1,6-dihydropyridine-3-carbohydrazide] showed an MIC80 of 0.88 µg/mL (≈ 3.14 µM).

Work on Cc1nc(F)ccc1NNC(=O)c1ccc(=O)n(C)c1 [Example 20, N′-(6-fluoro-2-methylpyridine-3-yl)-1-methyl-6-oxo-1,6-dihydropyridine-3-carbohydrazide] yielded an MIC80 of 0.22 µg/mL (≈ 0.796 µM).

Cn1cc(C(=O)NNc2cccc(F)c2)c(Cl)cc1=O [Example 22, 4-chloro-N′-(3-fluorophenyl)-1-methyl-6-oxo-1,6-dihydropyridine-3-carbohydrazide] showed an MIC80 of 0.23 µg/mL (≈ 0.778 µM).

With Cn1cc(C(=O)NNc2ccc(F)cc2)c(Cl)cc1=O [Example 23, 4-chloro-N′-(4-fluorophenyl)-1-methyl-6-oxo-1,6-dihydropyridine-3-carbohydrazide] the MIC80 was 0.46 µg/mL (≈ 1.56 µM).

Compound Cn1cc(C(=O)NNc2ccc(F)cc2)cc(Cl)c1=O [Example 25, 5-chloro-N′-(4-fluorophenyl)-1-methyl-6-oxo-1,6-dihydropyridine-3-carbohydrazide] has an MIC80 of 0.23 µg/mL (≈ 0.778 µM).

Cn1cc(C(=O)NNc2ccc(Cl)cc2)cc(Cl)c1=O [Example 27, 5-chloro-N′-(4-chlorophenyl)-1-methyl-6-oxo-1,6-dihydropyridine-3-carbohydrazide] was tested, and the MIC80 was 0.49 µg/mL (≈ 1.57 µM).

Compound Cn1cc(C(=O)NNc2cccc(C#N)c2)cc(Cl)c1=O [Example 28, 5-chloro-N′-(3-cyanophenyl)-1-methyl-6-oxo-1,6-dihydropyridine-3-carbohydrazide] has an MIC80 of 0.12 µg/mL (≈ 0.396 µM).

In the case of Cn1cc(C(=O)NNc2ccc(C#N)cc2)cc(Cl)c1=O [Example 29, 5-chloro-N′-(4-cyanophenyl)-1-methyl-6-oxo-1,6-dihydropyridine-3-carbohydrazide], the MIC80 is reported as 0.47 µg/mL (≈ 1.55 µM).

Work on Cn1cc(C(=O)NNc2ccc(F)cc2F)cc(Cl)c1=O [Example 30, 5-chloro-N′-(2,4-difluorophenyl)-1-methyl-6-oxo-1,6-dihydropyridine-3-carbohydrazide] yielded an MIC80 of 0.31 µg/mL (≈ 0.988 µM).

Cn1cc(C(=O)NNc2ccc(F)c(F)c2)cc(Cl)c1=O [Example 31, 5-chloro-N′-(3,4-difluorophenyl)-1-methyl-6-oxo-1,6-dihydropyridine-3-carbohydrazide] gave an MIC80 of 0.06 µg/mL (≈ 0.191 µM).

Compound Cn1cc(C(=O)NNc2cc(F)cc(F)c2)cc(Cl)c1=O [Example 32, 5-chloro-N′-(3,5-difluorophenyl)-1-methyl-6-oxo-1,6-dihydropyridine-3-carbohydrazide] has an MIC80 of 0.03 µg/mL (≈ 0.0956 µM).

Cn1cc(C(=O)NNc2cccc(F)c2)c(Nc2ccc(C(F)(F)F)cc2)cc1=O [Example 35, N′-(3-fluorophenyl)-1-methyl-6-oxo-4-((4-(trifluoromethyl)phenyl)amino)-1,6-dihydropyridine-3-carbohydrazide] was tested, and the MIC80 was 0.16 µg/mL (≈ 0.381 µM).

In the case of Cn1cc(C(=O)NNc2ccc(F)cc2)c(Nc2ccc(C(F)(F)F)cc2)cc1=O [Example 36, N′-(4-fluorophenyl)-1-methyl-6-oxo-4-((4-(trifluoromethyl)phenyl)amino)-1,6-dihydropyridine-3-carbohydrazide], the MIC80 is reported as 1.31 µg/mL (≈ 3.12 µM).

Cn1cc(C(=O)NNc2cccc(F)c2)cc(-c2ccccn2)c1=O [Example 41, N′-(3-fluorophenyl)-1-methyl-6-oxo-5-(pyridine-2-yl)-1,6-dihydropyridine-3-carbohydrazide] gave an MIC80 of 0.07 µg/mL (≈ 0.207 µM).

O=C(NNc1cccc(F)c1)c1ccc(=O)n(-c2ccccc2F)c1 [Example 42, 1-(2-fluorophenyl)-N′-(3-fluorophenyl)-6-oxo-1,6-dihydropyridine-3-carbohydrazide] gave an MIC80 of 0.07 µg/mL (≈ 0.205 µM).

O=C(NNc1cccc(F)c1)c1ccc(=O)n(-c2cccc(F)c2)c1 [Example 43, N′,1-Bis(3-fluorophenyl)-6-oxo-1,6-dihydropyridine-3-carbohydrazide] gave an MIC80 of 0.13 µg/mL (≈ 0.381 µM).

O=C(NNc1cccc(F)c1)c1ccc(=O)n(-c2ccc(F)cc2)c1 [Example 44, N′-(3-fluorophenyl)-1-(4-fluorophenyl)-6-oxo-1,6-dihydropyridine-3-carbohydrazide] gave an MIC80 of 0.13 µg/mL (≈ 0.381 µM).

Work on O=C(NNc1ccc(F)cc1)c1ccc(=O)n(-c2ccc(C(F)(F)F)cc2)c1 [Example 45, N′-(4-fluorophenyl)-6-oxo-1-(4-(trifluoromethyl)phenyl)-1,6-dihydropyridine-3-carbohydrazide] yielded an MIC80 of 0.61 µg/mL (≈ 1.56 µM).

O=C(NNc1ccc(F)cc1)c1ccc(=O)n(-c2cccc(C(F)(F)F)c2)c1 [Example 46, N′-(4-fluorophenyl)-6-oxo-1-(3-(trifluoromethyl)phenyl)-1,6-dihydropyridine-3-carbohydrazide] gave an MIC80 of 0.31 µg/mL (≈ 0.792 µM).

O=C(NNc1ccc(F)cc1)c1ccc(=O)n(-c2cccc(Cl)c2)c1 [Example 47, 1-(3-chlorophenyl)-N′-(4-fluorophenyl)-6-oxo-1,6-dihydropyridine-3-carbohydrazide] showed an MIC80 of 0.56 µg/mL (≈ 1.57 µM).

Compound O=C(NNc1cccc(F)c1)c1ccc(=O)n(Cc2ccc(C(F)(F)F)nc2)c1 [Example 50, N′-(3-fluorophenyl)-6-oxo-1-((6-(trifluoromethyl)pyridine-3-yl)methyl)-1,6-dihydropyridine-3-carbohydrazide] has an MIC80 of 0.08 µg/mL (≈ 0.197 µM).

Compound O=C(NNc1ccc(F)cc1)c1ccc(=O)n(Cc2ccc(C(F)(F)F)nc2)c1 [Example 51, N′-(4-fluorophenyl)-6-oxo-1-((6-(trifluoromethyl)pyridine-3-yl)methyl)-1,6-dihydropyridine-3-carbohydrazide] has an MIC80 of 0.16 µg/mL (≈ 0.394 µM).
